Laboratory results published in PubChem BioAssay AID330 (DTP/NCI, 2004).
Values joined by “and” are separate entries in the source; they are usually repeats but may differ in a detail not shown here. Equal entries are not always repeated. Inconclusive results and toxic doses are left out. The calls were made as follows: active = survival T/C of 150% or more; inactive = T/C below 125% in these data.

Tested on: P388 leukemia ip, CD2F1 mice, survival T/C
Assay: NCI In Vivo Anticancer Drug Screen. Data for tumor model P388 Leukemia (intraperitoneal) in CD2F1 (CDF1) mice
Conditions: endpoint: median survival time, higher = longer survival
How it was run: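 Mice carrying the transplanted tumor received test compound or vehicle. Survival was recorded in each group, and the value is the treated-group measurement divided by that of the vehicle-treated control group.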

[1] = dose: 50.0 mg/kg/injection, schedule: Q01DX009 (ip), vehicle: saline
[2] = dose: 100.0 mg/kg/injection, schedule: Q01DX009 (ip), vehicle: saline
[3] = dose: 200.0 mg/kg/injection, schedule: Q01DX009 (ip), vehicle: saline
[4] = dose: 12.5 mg/kg/injection, schedule: Q01DX005 (ip), vehicle: saline with Tween-80
[5] = dose: 25.0 mg/kg/injection, schedule: Q01DX005 (ip), vehicle: saline with Tween-80
[6] = dose: 50.0 mg/kg/injection, schedule: Q01DX005 (ip), vehicle: saline with Tween-80
[7] = dose: 50.0 mg/kg/injection, schedule: Q01DX001 (ip), vehicle: Klucel (hydroxypropylcellulose) (HPC)
[8] = dose: 100.0 mg/kg/injection, schedule: Q01DX001 (ip), vehicle: Klucel (hydroxypropylcellulose) (HPC)
[9] = dose: 200.0 mg/kg/injection, schedule: Q01DX001 (ip), vehicle: Klucel (hydroxypropylcellulose) (HPC)
[10] = dose: 100.0 mg/kg/injection, schedule: Q01DX005 (ip), vehicle: saline with Tween-80
[11] = dose: 200.0 mg/kg/injection, schedule: Q01DX005 (ip), vehicle: saline with Tween-80
[12] = dose: 60.0 mg/kg/injection, schedule: Q01DX005 (ip), vehicle: saline with Tween-80
[13] = dose: 120.0 mg/kg/injection, schedule: Q01DX005 (ip), vehicle: saline with Tween-80
[14] = dose: 240.0 mg/kg/injection, schedule: Q01DX005 (ip), vehicle: saline with Tween-80
[15] = dose: 25.0 mg/kg/injection, schedule: Q01DX009 (ip), vehicle: saline with Tween-80
[16] = dose: 50.0 mg/kg/injection, schedule: Q01DX009 (ip), vehicle: saline with Tween-80
[17] = dose: 100.0 mg/kg/injection, schedule: Q01DX009 (ip), vehicle: saline with Tween-80
[18] = dose: 200.0 mg/kg/injection, schedule: Q01DX009 (ip), vehicle: saline with Tween-80
[19] = dose: 50.0 mg/kg/injection, schedule: Q01DX005 (ip), vehicle: saline
[20] = dose: 100.0 mg/kg/injection, schedule: Q04DX003 (ip), vehicle: saline with Tween-80
[21] = dose: 50.0 mg/kg/injection, schedule: Q01DX005 (ip), vehicle: Klucel (hydroxypropylcellulose) (HPC)
[22] = dose: 100.0 mg/kg/injection, schedule: Q01DX005 (ip), vehicle: Klucel (hydroxypropylcellulose) (HPC)
[23] = dose: 200.0 mg/kg/injection, schedule: Q01DX005 (ip), vehicle: Klucel (hydroxypropylcellulose) (HPC)
[24] = dose: 60.0 mg/kg/injection, schedule: Q01DX005 (ip), vehicle: Klucel (hydroxypropylcellulose) (HPC)
[25] = dose: 120.0 mg/kg/injection, schedule: Q01DX005 (ip), vehicle: Klucel (hydroxypropylcellulose) (HPC)

Measured: T/C

OC(C/C=C/c1ccccc1)(c1ccccc1)c1ccccc1
inactive: [1] 109 % of control | [2] 100 % of control | [3] 91 % of control

CC(C)c1ccc(C[n+]2ccccc2/C=N/O)cc1
inactive: [4] 100 % of control | [5] 95 % of control | [6] 103 % of control

Cn1c(Cl)c(/C=N\Nc2cccc([N+](=O)[O-])c2)c2ccccc21
inactive: [7] 92 % of control | [8] 90 % of control | [9] 92 % of control

COC(=O)/C(O)=C(/O)C(=O)OC
inactive: [6] 99 % of control | [10] 100 % of control | [11] 99 % of control

CCC(CC)C[Se][Se]CC(CC)CC
inactive: dose: 6.25 mg/kg/injection, schedule: Q01DX009 (ip), vehicle: Klucel (hydroxypropylcellulose) (HPC) 100 % of control | dose: 12.5 mg/kg/injection, schedule: Q01DX009 (ip), vehicle: Klucel (hydroxypropylcellulose) (HPC) 101 % of control | dose: 25.0 mg/kg/injection, schedule: Q01DX009 (ip), vehicle: Klucel (hydroxypropylcellulose) (HPC) 103 % of control

O=[N+]([O-])c1ccc2nnnn2c1
inactive: [1] 100 % of control | [2] 107 % of control | [3] 100 % of control

O=C1c2ccccc2C(=O)N1CCc1ncc[nH]1
inactive: [12] 99 % of control | [13] 99 % of control | [14] 100 % of control

O=C(Nc1cc(-c2ccccc2)[nH]n1)c1ccc(Cl)cc1
inactive: [12] 102 % of control | [13] 93 % of control | [14] 93 % of control

COc1cc(C)c(OC)c(C/C=C(\C)CC2=C(CC(C)(C)O)C(=O)[C@]3(C)CCC[C@]3(C)C2)c1
inactive: dose: 5.0 mg/kg/injection, schedule: Q01DX005 (ip), vehicle: saline with Tween-80 105 % of control | dose: 10.0 mg/kg/injection, schedule: Q01DX005 (ip), vehicle: saline with Tween-80 94 % of control | dose: 20.0 mg/kg/injection, schedule: Q01DX005 (ip), vehicle: saline with Tween-80 94 % of control

O=C(NCc1ccccc1)N1CCN(c2ccccc2)C1=O
inactive: [15] 103 % of control and 88 % of control | [16] 98 % of control and 89 % of control and 96 % of control | [17] 97 % of control | [18] 98 % of control and 89 % of control and 93 % of control

COC(=O)c1nnn(-c2ccc(S(N)(=O)=O)cc2)c1N
inactive: dose: 60.0 mg/kg/injection, schedule: Q01DX005 (ip), vehicle: saline 98 % of control | dose: 120.0 mg/kg/injection, schedule: Q01DX005 (ip), vehicle: saline 104 % of control | dose: 240.0 mg/kg/injection, schedule: Q01DX005 (ip), vehicle: saline 98 % of control

O=C(CSCC(=O)c1ccc([N+](=O)[O-])cc1)c1ccc([N+](=O)[O-])cc1
inactive: [6] 94 % of control | [10] 96 % of control | [11] 87 % of control

CSCC[C@]1(C)C(=O)N(C)[C@H](C(C)(C)C)N1C(=O)c1ccccc1
inactive: [12] 99 % of control | [13] 100 % of control | [14] 93 % of control

O=C(Nc1ccccc1C1=NCCN1)Nc1ccccc1C1=NCCN1
inactive: [19] 100 % of control | dose: 100.0 mg/kg/injection, schedule: Q01DX005 (ip), vehicle: saline 106 % of control

C=CN=NNc1ccc(C#N)cc1
inactive: [20] 90 % of control | dose: 200.0 mg/kg/injection, schedule: Q04DX003 (ip), vehicle: saline with Tween-80 106 % of control

CCCCN(CCNc1cc(OC)cc2cccnc12)C(C)CC (stereo not given)
inactive: dose: 12.5 mg/kg/injection, schedule: Q01DX005 (ip), vehicle: saline 112 % of control | dose: 25.0 mg/kg/injection, schedule: Q01DX005 (ip), vehicle: saline 119 % of control | [19] 98 % of control and 104 % of control

OC1CC2CCC(N2)C1c1ccccc1 (stereo not given)
inactive: [4] 94 % of control | [5] 86 % of control | [6] 101 % of control and 93 % of control

CCOC(=O)c1ccc(NC(=O)c2ccccc2)cc1
inactive: [7] 96 % of control | [8] 90 % of control | [9] 92 % of control | dose: 400.0 mg/kg/injection, schedule: Q01DX001 (ip), vehicle: Klucel (hydroxypropylcellulose) (HPC) 95 % of control

Clc1ccc(N=NN2CCOC2)cc1
inactive: [12] 115 % of control | [13] 109 % of control

C=C1CCC2C(OC(=O)C2(O)CO)C2C(=C)C(O)CC12 (stereo not given)
inactive: dose: 9.38 mg/kg/injection, schedule: Q01DX005 (ip), vehicle: Klucel (hydroxypropylcellulose) (HPC) 103 % of control | dose: 18.75 mg/kg/injection, schedule: Q01DX005 (ip), vehicle: Klucel (hydroxypropylcellulose) (HPC) 105 % of control | dose: 37.5 mg/kg/injection, schedule: Q01DX005 (ip), vehicle: Klucel (hydroxypropylcellulose) (HPC) 100 % of control | dose: 75.0 mg/kg/injection, schedule: Q01DX005 (ip), vehicle: Klucel (hydroxypropylcellulose) (HPC) 104 % of control | dose: 150.0 mg/kg/injection, schedule: Q01DX005 (ip), vehicle: Klucel (hydroxypropylcellulose) (HPC) 113 % of control

O=c1[nH]nc(-c2ccc([N+](=O)[O-])o2)o1
inactive: dose: 6.25 mg/kg/injection, schedule: Q01DX009 (ip), vehicle: saline with Tween-80 101 % of control | dose: 12.5 mg/kg/injection, schedule: Q01DX009 (ip), vehicle: saline with Tween-80 106 % of control | [15] 97 % of control | [16] 99 % of control

CCOC(=O)N1CC23C(C)C(C)=C(C)C2C3(C)N1C(=O)OCC (stereo not given)
inactive: [21] 100 % of control | [22] 100 % of control | [23] 98 % of control

CC(C)(C)n1nc(C2CC2)c(Br)c1NC(=O)c1ccccc1Cl
inactive: dose: 30.0 mg/kg/injection, schedule: Q01DX005 (ip), vehicle: Klucel (hydroxypropylcellulose) (HPC) 106 % of control | [24] 109 % of control | [25] 105 % of control | dose: 240.0 mg/kg/injection, schedule: Q01DX005 (ip), vehicle: Klucel (hydroxypropylcellulose) (HPC) 100 % of control

CC(C)NC(=O)c1ccc(N/N=[N+](/C)[O-])cc1
inactive: dose: 6.25 mg/kg/injection, schedule: Q01DX005 (ip), vehicle: saline with Tween-80 97 % of control | [4] 99 % of control | [5] 98 % of control | [6] 92 % of control | [10] 102 % of control

O=C1C(=O)c2ccc3c(c2-c2cc4c(cc21)OCO4)OCO3
inactive: [24] 86 % of control | [25] 87 % of control

OC(COc1c2ccccc2nc2ccccc12)CN1CCOCC1 (stereo not given)
inactive: [6] 99 % of control | [10] 93 % of control

O=C(Nc1cccc(Cl)c1Cl)c1cc(/C=C/c2ccc([N+](=O)[O-])cc2)on1
inactive: dose: 30.0 mg/kg/injection, schedule: Q01DX005 (ip), vehicle: saline with Tween-80 95 % of control | [12] 91 % of control and 96 % of control | [13] 87 % of control and 95 % of control | [14] 97 % of control

N=C(N)SCc1c2ccccc2cc2ccccc12
inactive: dose: 22.0 mg/kg/injection, schedule: Q01DX009 (ip), vehicle: saline with Tween-80 109 % of control | dose: 33.0 mg/kg/injection, schedule: Q01DX009 (ip), vehicle: saline with Tween-80 109 % of control | [16] 109 % of control | dose: 75.0 mg/kg/injection, schedule: Q01DX009 (ip), vehicle: saline with Tween-80 118 % of control | [20] 118 % of control

c1ccc(-c2cc(-c3ccccc3)o/c(=N/n3cnnc3)c2)cc1
inactive: [21] 99 % of control | [22] 89 % of control | [23] 89 % of control

CCC1CN1P(=O)(Oc1ccc2ccccc2c1)N1CC1CC (stereo not given)
active: [16] 173 % of control | [17] 155 % of control and 177 % of control | dose: 150.0 mg/kg/injection, schedule: Q04DX003 (ip), vehicle: saline with Tween-80 240 % of control | [18] 170 % of control
inactive: dose: 44.0 mg/kg/injection, schedule: Q04DX003 (ip), vehicle: saline with Tween-80 104 % of control | dose: 66.0 mg/kg/injection, schedule: Q04DX003 (ip), vehicle: saline with Tween-80 109 % of control | dose: 150.0 mg/kg/injection, schedule: Q01DX009 (ip), vehicle: saline with Tween-80 100 % of control
